Assay results from paper PMC5742231 (Frontiers in Chemistry, 2017).

Assays:
[1] = system: Bacteriophage ΔTOX:GFP (ϕΔTOX:GFP); assay type: cell-based
S. aureus = conditions: cited from earlier work
[2] = system: different bacterial strains; conditions: cited from earlier work

Sequence | bacteriophage inactivation activity (in words) [1] | phages inactivated [1] [%] | also measured
GLLKKWLKKWKEFKRIVGY [Peptide 2] | lowest inactivation activity | – | shape of phage neutralizing activity vs. concentration curve [1]: bell curve shaped behavior
GLLRKWGKKWKEFLRRVWK [Peptide 6.2] | – | ~100 | shape of phage neutralizing activity vs. concentration curve [1]: bell curve shaped behavior
ILRWPWWPWRRK [Omiganan, reference compound] | no inactivation activity | – | antimicrobial activity against S. aureus (S. aureus): activity against S. aureus
MVVFSVPKFKSTVAKLLSSA [Random peptide, reference compound] | no inactivation activity | – | antimicrobial activity [2]: no antimicrobial activity
RIVQRIAKWAKKWYKAGK [Peptide 8.1] | lowest inactivation activity | – | –
RIVQRIKKWLLKWKKLGY [Peptide 5] | – | ~100 | –
RIVQRILKWLKKWYKLGK [Peptide 8] | – | ~100 | –
